Results as given in patent publication US12180187B2, “1-phenyl-5-azinylpyrazolyl-3-oxyalkyl acids and their use for controlling unwanted plant growth” (BAYER AKTIENGESELLSCHAFT, priority 2019, dated 2024).

Assays:
VIOTR [1] = experiment: Pre-emergence action at 320 g/ha against VIOTR; assay type: in vivo, Viola tricolor; conditions: dosage 320 g/ha
Procedure, shortened: (§1)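 Weed and crop seeds sown in pots and covered with soil; WP or EC formulations sprayed pre-emergence onto the soil surface at 320 g/ha with 0.5% additive in 600 l/ha water. Kept in greenhouse; after about 3 weeks activity scored visually as % versus untreated controls (100% = plants dead, 0% = as control).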

AVEFA [2] = experiment: Post-emergence action at 320 g/ha against AVEFA; assay type: in vivo; conditions: visual rating about 3 weeks after treatment vs untreated controls
Excerpt: (§2) Accordingly, the compounds of the invention have good herbicidal action against a broad spectrum of weed grasses and broad-leaved weeds and are therefore suitable for controlling unwanted vegetation by the post-emergence method. • b) Seeds of monocotyledonous and dicotyledonous weeds and crop plants are placed in sandy loam in plastic or organic planting pots, covered with soil and cultivated in a greenhouse under controlled growth conditions. 2 to 3 weeks after sowing, the test plants are treated at the one-leaf stage. The compounds of the invention, formulated in the form of wettable powders (WP) or as emulsion concentrates (EC), are then sprayed onto the green parts of the plants as aqueous suspension or emulsion with addition of 0.5% additive at a water application rate of 600 l/ha (converted). After the test plants have been kept in the greenhouse under optimum growth conditions for about 3 weeks, the activity of the preparations is rated visually in comparison to untreated controls. For example, 100% activity=the plants have died, 0% activity=like control plants. Tables 39 to 49 below show the effects of selected compounds of the general formula (I) according to Tables 1 and 2 on various harmful plants and at an application rate corresponding to 320 g/ha, which were obtained by the experimental procedure mentioned above.

ALOMY [3] = experiment: Post-emergence action against ALOMY, 320 g/ha; assay type: in vivo, Alopecurus myosuroides; conditions: dosage 320 g/ha, visual rating about 3 weeks after treatment vs untreated controls (100% = plants died)
Excerpt: as §2

SETVI [4] = experiment: Post-emergence action at 320 g/ha against SETVI; assay type: in vivo, Setaria viridis; conditions: visual rating about 3 weeks after treatment vs untreated controls
Excerpt: as §2

DIGSA [5] = experiment: Pre-emergence action at 320 g/ha against DIGSA; assay type: in vivo, Digitaria sanguinalis; conditions: visual scoring after about 3 weeks vs untreated controls
Procedure, shortened: as §1

AMARE [6] = experiment: Pre-emergence action at 320 g/ha against AMARE; assay type: in vivo, Amaranthus retroflexus; conditions: visual scoring after about 3 weeks vs untreated controls
Procedure, shortened: as §1

ECHCG = experiment: Post-emergence action at 320 g/ha against ECHCG; assay type: in vivo, Echinochloa crus-galli; conditions: dosage 320 g/ha, visual rating about 3 weeks after treatment vs untreated controls (100% = plants died)
Excerpt: as §2

ECHGC = experiment: Pre-emergence action at 320 g/ha against ECHGC; assay type: in vivo, Echinochloa crus-galli; conditions: visual scoring after about 3 weeks vs untreated controls
Procedure, shortened: as §1

ALOMY [7] = experiment: Pre-emergence action at 320 g/ha against ALOMY; assay type: in vivo, Alopecurus myosuroides; conditions: scored visually after about 3 weeks vs untreated controls (100% = plants have died)
Procedure, shortened: as §1

PHBPU = experiment: Post-emergence action at 320 g/ha against PHBPU; assay type: in vivo; conditions: visual rating about 3 weeks after treatment vs untreated controls
Excerpt: as §2

VIOTR [8] = experiment: Post-emergence action at 320 g/ha against VIOTR; assay type: in vivo, Viola tricolor; conditions: visual rating about 3 weeks after treatment vs untreated controls
Excerpt: as §2

VERPE = experiment: Pre-emergence action at 320 g/ha against VERPE; assay type: in vivo, Veronica persica; conditions: visual scoring after about 3 weeks vs untreated controls
Procedure, shortened: as §1

SETVI [9] = experiment: Pre-emergence action at 320 g/ha against SETVI; assay type: in vivo, Setaria viridis; conditions: visual scoring after about 3 weeks vs untreated controls
Procedure, shortened: as §1

LOLRI = experiment: Pre-emergence action at 320 g/ha against LOLRI; assay type: in vivo, Lolium rigidum; conditions: visual scoring after about 3 weeks vs untreated controls
Procedure, shortened: as §1

POLCO [10] = experiment: Post-emergence action at 320 g/ha against POLCO; assay type: in vivo, Fallopia convolvulus (Polygonum convolvulus); conditions: visual rating about 3 weeks after treatment vs untreated controls
Excerpt: as §2

AMARE [11] = experiment: Post-emergence action at 320 g/ha against AMARE; assay type: in vivo, Amaranthus retroflexus; conditions: visual rating about 3 weeks after treatment vs untreated controls
Excerpt: as §2

ABUTH [12] = experiment: Post-emergence action at 320 g/ha against ABUTH; assay type: in vivo, Abutilon theophrasti; conditions: visual rating about 3 weeks after treatment vs untreated controls
Excerpt: as §2

AVEFA [13] = experiment: Pre-emergence action at 320 g/ha against AVEFA; assay type: in vivo; conditions: visual scoring after about 3 weeks vs untreated controls
Procedure, shortened: as §1

DIGSA [14] = experiment: Post-emergence action at 320 g/ha against DIGSA; assay type: in vivo, Digitaria sanguinalis; conditions: dosage 320 g/ha, visual rating about 3 weeks after treatment vs untreated controls (100% = plants died)
Excerpt: as §2

POLCO [15] = experiment: Pre-emergence action at 320 g/ha against POLCO; assay type: in vivo, Fallopia convolvulus (Polygonum convolvulus); conditions: visual scoring after about 3 weeks vs untreated controls
Procedure, shortened: as §1

ABUTH [16] = experiment: Pre-emergence action at 320 g/ha against ABUTH; assay type: in vivo, Abutilon theophrasti; conditions: greenhouse, scored visually after about 3 weeks vs untreated controls, 100% = plants have died, 0% = like control plants
Excerpt: b) Seeds of monocotyledonous and dicotyledonous weed plants and crop plants are placed in plastic or organic planting pots and covered with soil. The compounds of the invention, formulated in the form of wettable powders (WP) or as emulsion concentrates (EC), are then applied onto the surface of the covering soil as aqueous suspension or emulsion with addition of 0.5% additive at a water application rate of 600 l/ha (converted). After the treatment, the pots are placed in a greenhouse and kept under good growth conditions for the trial plants. After about 3 weeks, the effect of the preparations is scored visually in comparison with untreated controls as percentages. For example, 100% activity=the plants have died, 0% activity=like control plants. Tables 13 to 26 below show the effects of selected compounds of the general formula (I) on various harmful plants and at an application rate corresponding to 320 g/ha, which were obtained by the experimental procedure mentioned above.

MATIN = experiment: Pre-emergence action at 320 g/ha against MATIN; assay type: in vivo, Tripleurospermum inodorum (Matricaria inodora); conditions: visual scoring after about 3 weeks vs untreated controls
Procedure, shortened: as §1

Row | SMILES | Pre-emergence action against VIOTR in % (VIOTR [1]) [%] | Pre-emergence action against DIGSA in % (DIGSA [5]) [%] | Pre-emergence action against AMARE in % (AMARE [6]) [%] | Pre-emergence action against ECHGC in % (ECHGC) [%] | Pre-emergence action at 320 g/ha against ALOMY in % (ALOMY [7]) [%] | Pre-emergence action against VERPE in % (VERPE) [%] | Pre-emergence action against SETVI in % (SETVI [9]) [%] | Pre-emergence action against LOLRI in % (LOLRI) [%] | Pre-emergence action against AVEFA in % (AVEFA [13]) [%] | Pre-emergence action against POLCO in % (POLCO [15]) [%] | Pre-emergence action at 320 g/ha against ABUTH in % (ABUTH [16]) [%] | Pre-emergence action against MATIN in % (MATIN) [%] | further results
1 | CCOC(=O)COc1nn(-c2ccccc2F)c(-c2ccc(F)nc2)c1F [VII-034] | 100 | 100 | 100 | 90 | 90 | 80 | 100 | 90 | 90 | 90 |  |  | Post-emergence action against AVEFA in % (AVEFA [2]): 90%; Post-emergence action against ALOMY (ALOMY [3]): 90%; Post-emergence action against SETVI in % (SETVI [4]): 90%; Post-emergence action at 320 g/ha against ECHCG in % (ECHCG): 90%; Post-emergence action against PHBPU in % (PHBPU): 90%; Post-emergence action against VIOTR in % (VIOTR [8]): 80%; Post-emergence action against POLCO in % (POLCO [10]): 80%; Post-emergence action against AMARE in % (AMARE [11]): 80%; Post-emergence action against ABUTH in % (ABUTH [12]): 80%; Post-emergence action at 320 g/ha against DIGSA in % (DIGSA [14]): 90%
2 | CCOC(=O)[C@@H](C)Oc1nn(-c2ccccc2F)c(-c2cncc(F)c2)c1Br [VII-130] | 100 | 100 | 100 | 90 | 100 | 100 | 100 | 100 | 90 | 100 | 90 | 100 | 
3 | C[C@@H](Oc1nn(-c2cc(F)ccc2F)c(-c2cncc(F)c2)c1Br)C(=O)O [VII-137] | 100 |  | 100 | 90 | 100 | 100 | 100 | 100 | 90 | 90 | 90 | 90 | 
